# Measurements from ChEMBL document CHEMBL1201862, “PubChem BioAssay data set” (2004).
# Active and inactive are the calls of the source. Rule as the data show it, for most assays here: actives have a measured EC50 and inactives only a lower limit.
# Key:
# [1] = viability of PTEN-deleted HCT116 cells – cell-based, HCT116 PTEN knockout, dose response (AID 1047); type: functional;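 also: HCT116 colon tumor cells with PTEN knocked out; cells exposed to compound for 60 hours before readout; potency for loss of cell viability measured by luminescence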
# [2] = viability of HCT116 lacking mutant beta-catenin – cell-based, human colon tumor, dose response (AID 1045); type: functional;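 also: HCT116 colon tumor cells with beta catenin knocked out; cells exposed to compound for 60 hours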
# [3] = Luminescence Cell-Based Dose Retest to Confirm Inhibitors of Cancer Stem Cells. [Related pubchem assays (depositor defined):AID2717, AID2721]; type: functional; details: Homo sapiens
# [4] = Luminescence Cell-Based Dose Confirmation HTS to Identify Activators of 5'UTR Stem-Loop Driven Alpha-Synuclein mRNA Translation in H4 Neuroglioblastoma Cells. [Related pubchem assays: 1829 (Project Summary), 1814 (Primary HTS)]; type: functional
# [5] = Luminescence Cell-Based Dose Response HTS to Identify Activators of Luciferase Translation or Activity in H4 […] Cells. [Related pubchem assays: 1829 (Project Summary), 1814 (Primary HTS)]; type: functional
# H4 = assay: Luminescence Cell-Based Dose Response HTS to Identify Activators of 5'UTR Stem-Loop Driven Prion Protein mRNA Translation in H4 Neuroglioblastoma Cells. [Related pubchem assays: 1829 (Project Summary), 1814 (Primary HTS)]; type: functional; details: Homo sapiens
# [6] = Trypanosoma cruzi growth suppression in host cells – NIH3T3 host cells, beta-gal luminescence, confirmation (AID 2044); type: functional, cell-based;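 also: intracellular parasites grown in NIH/3T3 mouse fibroblasts as host cells; luminescent beta-galactosidase reporter signal from transgenic T. cruzi replicating inside host cells; inhibitors lower the luminescence signal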
# [7] = NIH3T3 cell viability loss – ATP luminescence, mouse fibroblasts, counter-screen, dose response (AID 2010); type: functional, cell-based;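 also: cells exposed to compound for about 90 hours before reading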
# [8] = NIH-3T3 fibroblast cytotoxicity, dose response, cytotoxicity control, cell-based, fluorescence, Alamar Blue, secondary assay (AID 2327); type: functional;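 also: NIH-3T3 mouse fibroblasts cultured with fluconazole at 8 µg/mL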
# [9] = fluconazole-exposed Candida albicans growth modulators – fluorescence, retest, confirmation (AID 2467); type: functional, cell-based
# [10] = target: T1, Rac GTPase-activating protein 1 (Homo sapiens, UniProt Q9H0H5); assay: blockers of MgcRacGAP-driven Rac1 GTP hydrolysis – biochemical, ADP Hunter fluorescence, primary and confirmatory, confirmation (AID 624330); type: functional
# T1 sequence (Q9H0H5 whole entry): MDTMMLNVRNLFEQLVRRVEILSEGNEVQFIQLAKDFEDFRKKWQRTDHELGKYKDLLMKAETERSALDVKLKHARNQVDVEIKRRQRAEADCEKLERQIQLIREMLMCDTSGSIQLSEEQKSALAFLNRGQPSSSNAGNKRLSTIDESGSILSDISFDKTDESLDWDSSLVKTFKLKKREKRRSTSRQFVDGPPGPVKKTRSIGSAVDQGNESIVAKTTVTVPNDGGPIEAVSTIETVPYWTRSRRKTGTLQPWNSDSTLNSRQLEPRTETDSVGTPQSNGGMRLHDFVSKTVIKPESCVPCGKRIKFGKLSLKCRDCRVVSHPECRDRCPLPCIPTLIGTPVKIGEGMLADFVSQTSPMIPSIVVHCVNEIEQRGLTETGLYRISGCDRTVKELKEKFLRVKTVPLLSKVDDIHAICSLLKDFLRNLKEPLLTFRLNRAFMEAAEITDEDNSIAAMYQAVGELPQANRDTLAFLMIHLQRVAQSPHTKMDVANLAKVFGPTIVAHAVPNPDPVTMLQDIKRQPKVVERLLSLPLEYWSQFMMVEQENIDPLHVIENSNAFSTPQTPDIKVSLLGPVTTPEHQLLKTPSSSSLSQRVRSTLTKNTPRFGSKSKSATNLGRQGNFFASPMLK
# [11] = microbe, parasite or virus in culture; type: functional; details: Mycobacterium tuberculosis
# [12] = target: T2, Heat shock factor protein 1 (Mus musculus, UniProt P38532); assay: enhancement of HSF1-driven luciferase signal – cell-based, NIH3T3, luminescence, dose retest, confirmation (AID 435004); type: functional;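 also: stress induced by proteasome inhibitor MG132 added 30 min after compound; luciferase reporter driven by HSF1 response element in NIH3T3 cells; actives raise luminescence as potentiators of the MG132 stress response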
# T2 sequence (P38532 whole entry): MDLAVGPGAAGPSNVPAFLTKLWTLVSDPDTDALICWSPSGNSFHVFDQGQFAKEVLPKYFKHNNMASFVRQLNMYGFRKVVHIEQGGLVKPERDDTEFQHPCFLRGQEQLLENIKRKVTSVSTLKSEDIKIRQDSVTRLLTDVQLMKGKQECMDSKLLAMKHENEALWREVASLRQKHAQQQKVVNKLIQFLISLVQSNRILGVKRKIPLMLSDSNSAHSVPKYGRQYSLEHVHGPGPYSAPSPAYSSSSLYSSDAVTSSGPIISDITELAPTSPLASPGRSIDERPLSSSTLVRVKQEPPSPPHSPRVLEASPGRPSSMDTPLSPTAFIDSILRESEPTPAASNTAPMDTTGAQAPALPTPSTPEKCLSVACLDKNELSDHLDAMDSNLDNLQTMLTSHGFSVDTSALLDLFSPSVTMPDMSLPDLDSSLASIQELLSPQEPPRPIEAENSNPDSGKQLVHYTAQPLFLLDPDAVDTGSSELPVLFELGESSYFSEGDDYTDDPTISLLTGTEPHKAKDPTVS
# [13] = target: T3, Corticotropin-releasing factor receptor 2/Corticotropin-releasing factor-binding protein (Homo sapiens, UniProt P24387+Q13324); assay: Dose Response confirmation of uHTS hits for small molecule antagonists of the CRF-binding protein and CRF-R2 receptor complex.; type: functional; details: read-out: IC50_Mean
# T3 sequence (Q13324 whole entry): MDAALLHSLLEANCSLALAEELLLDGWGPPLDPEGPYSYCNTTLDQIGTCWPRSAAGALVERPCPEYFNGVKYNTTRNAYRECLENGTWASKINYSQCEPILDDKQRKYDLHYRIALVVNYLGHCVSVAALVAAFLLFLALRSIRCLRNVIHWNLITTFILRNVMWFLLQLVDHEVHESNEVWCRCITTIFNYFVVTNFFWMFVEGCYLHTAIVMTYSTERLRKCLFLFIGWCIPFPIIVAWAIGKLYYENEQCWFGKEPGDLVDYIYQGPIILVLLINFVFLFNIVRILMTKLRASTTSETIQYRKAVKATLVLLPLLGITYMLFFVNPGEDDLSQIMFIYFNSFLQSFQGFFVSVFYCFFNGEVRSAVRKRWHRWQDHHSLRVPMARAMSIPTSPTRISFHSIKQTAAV
# T3 sequence (P24387 whole entry): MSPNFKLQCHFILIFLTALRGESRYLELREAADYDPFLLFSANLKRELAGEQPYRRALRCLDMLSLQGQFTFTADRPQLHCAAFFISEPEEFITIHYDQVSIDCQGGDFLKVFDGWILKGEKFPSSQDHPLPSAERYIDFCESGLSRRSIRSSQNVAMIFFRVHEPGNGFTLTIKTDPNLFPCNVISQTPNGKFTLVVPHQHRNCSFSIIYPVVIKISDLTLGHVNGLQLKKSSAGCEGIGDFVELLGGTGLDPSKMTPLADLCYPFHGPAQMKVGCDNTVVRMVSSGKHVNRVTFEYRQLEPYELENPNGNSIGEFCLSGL
# [14] = target: T3, Corticotropin-releasing factor receptor 2/Corticotropin-releasing factor-binding protein; assay: activators of CRF receptor 2 with binding protein – uHTS hits, confirmation (AID 602473); type: functional; details: read-out: EC50_Mean
# INS1 = assay: INS-1E survival protection against cytokine death – cell-based, luminescence, retest, dose response (AID 449756); type: functional; details: Rattus norvegicus;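 also: cell death triggered by IL-1 beta plus TNF-alpha plus IFN-gamma mixture; protective hits raise ATP signal compared with cytokine alone wells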
# [15] = luciferase reporter signal suppression in cells – H4 neuroglioma cells, luminescence, dose response (AID 1990); type: functional, cell-based
# [16] = Luminescence Cell-Based Dose Response HTS to Identify Inhibitors of 5'UTR Stem-Loop Driven Prion Protein mRNA Translation in H4 Neuroglioblastoma Cells. [Related pubchem assays: 1827 (Project Summary), 1813 (Primary HTS)]; type: functional
# [17] = alpha-synuclein stem-loop luciferase translation blockers – H4 neuroglioma cells, luminescence, confirmation (AID 1988); type: functional, cell-based
# cells = type: functional
structure (smiles),measurement,setting,value
Cc1cc(OCCCCCNCCO)cc(C)c1Cl,EC50,[1],17.8 µM (active)
same,EC50,[2],17.6 µM (active)
Cc1cccc(N/N=C/c2ccccc2O)c1,AC50,[3],6.21 µM (active)
CC(C)=CCC/C(C)=C/CC(C)(C)CNCCN1CCNCC1,EC50,[4],> 120 µM (not active)
same,EC50,[5],> 120 µM (not active)
same,EC50,H4,> 120 µM (not active)
same,EC50,[1],6.28 µM (active)
same,EC50,[2],5.89 µM (active)
CCN1CCN(c2ccc(NC(=O)CCc3c(C)nc4c(-c5ccc(F)cc5)c(C)nn4c3C)cc2)CC1,EC50,[6],1.48 µM (active)
same,EC50,[7],32.4 µM (active)
same,AC50,[3],2.15 µM (active)
Nc1ccc(N2CCN(c3cccc(Cl)c3)CC2)cc1,EC50,[8],> 150 µM (inactive)
same,EC50,[9],> 38 µM (not active)
same,IC50,[10],21 µM (active)
O=C(NN=C1c2ccccc2-c2ccccc21)c1cccc(Br)c1,CC50,[11],15.1 µM (active)
same,EC50,[1],4.02 µM (active)
same,EC50,[2],4 µM (active)
Cc1c(Cl)ccc2c1NC(=O)C21NC(CCC(N)=O)[C@H]2C(=O)N(c3ccc(Cl)cc3)C(=O)[C@H]21 (stereo partly drawn),EC50,[12],> 260 µM (inactive)
same,IC50,[13],> 47.1 µM (inactive)
same,EC50,[14],> 53 µM (inactive)
CCOc1ccc(Nc2nc(Cc3nnc(SCC(=O)c4ccc(C)c(C)c4)o3)cs2)cc1,AC50,INS1,10.4 µM (active)
Cc1oc(-c2ccccc2F)nc1CS(=O)(=O)CC(=O)NCCCN1CCN(C)CC1,EC50,[12],> 260 µM (inactive)
S=c1[nH]cc(-c2ccccc2)n1-c1ccccc1Cl,EC50,[12],> 260 µM (inactive)
O=[N+]([O-])c1ccc(COc2ccc(-c3[nH]ncc3-c3ccc(Cl)cc3)c(O)c2)cc1,CC50,[11],> 40 µM (active)
same,AC50,[3],4.02 µM (active)
COc1ccc(CSc2nc(N3CCOCC3)c3c(c2C#N)CC(C)(C)OC3)cc1,EC50,[15],18.5 µM (active)
same,EC50,[16],> 120 µM (not active)
same,EC50,[17],> 120 µM (not active)
same,EC50,[6],2.52 µM (active)
same,EC50,[7],> 60 µM (not active)
O=C(Nc1ccccc1O)C(c1ccccc1)c1ccccc1,AC50,INS1,2.92 µM (active)
N=C(NOC(=O)c1cccc(Cn2cc(C(F)(F)F)ccc2=O)c1)c1ccccc1,AC50,INS1,7.96 µM (active)
Cc1ccc(C(=O)c2cc(C)sc2NC(=O)CN2CCN(C(=O)c3ccco3)CC2)cc1,CC50,[11],23.4 µM (active)
CCC1(CC)NC(=O)N(CC(=O)N2N=C(c3ccc(Cl)cc3)CC2c2ccco2)C1=O (stereo not drawn),EC50,[15],> 120 µM (not active)
same,EC50,[16],> 120 µM (not active)
same,EC50,[17],> 120 µM (not active)
CCN1CCN(CCCNC(=O)c2ccc(/C=C3/Oc4ccccc4N(Cc4cccc(C)c4)C3=O)cc2)CC1,EC50,[15],> 120 µM (not active)
same,EC50,[16],> 120 µM (not active)
same,EC50,[17],13.9 µM (active)
same,CC50,[11],5.99 µM (active)
COCCCNc1nc2nonc2nc1N1CCN(Cc2cccc(C)c2)CC1,EC50,[12],> 260 µM (inactive)
CCOc1ccc(/C=N/NC(=O)C(C)N(c2ccc(OC)cc2)S(C)(=O)=O)cc1 (stereo not drawn),EC50,[12],> 260 µM (inactive)
CC(=O)Nc1ccc(OC(=O)c2ccc(Br)c([N+](=O)[O-])c2)cc1,IC50,cells,10.1 µM (active)
same,IC50,[10],36.4 µM (active)
O=[N+]([O-])c1ccc(S(=O)(=O)N2CCSC2c2ccco2)cc1 (stereo not drawn),EC50,[12],> 260 µM (inactive)
Cc1ccc(S(=O)(=O)N(CC(=O)NCc2ccco2)Cc2ccc(F)cc2)cc1,EC50,[12],> 260 µM (inactive)
CC1(C)Cc2c(c(N3CCOCC3)nc3sc4c(NCc5ccccc5)nnnc4c23)CS1,EC50,[15],25 µM (active)
same,EC50,[16],20.8 µM (active)
same,EC50,[17],10.6 µM (active)
same,EC50,[6],1.13 µM (active)
same,EC50,[7],> 60 µM (not active)
Cc1ccc(CS(=O)(=O)Cc2ccc(C(=O)NC3CCCCCC3)o2)cc1,EC50,[15],24.3 µM (active)
same,EC50,[16],> 120 µM (not active)
same,EC50,[17],22.5 µM (active)
Cc1ccc2c(CN3CCN(S(=O)(=O)/C=C/c4ccccc4)CC3)cc(=O)oc2c1,EC50,[12],> 260 µM (inactive)
c1ccc(COc2ccccc2CNC2CCCC2)cc1,EC50,[12],> 260 µM (inactive)
COc1ccc(C2c3c(oc4ccccc4c3=O)C(=O)N2c2ccccn2)cc1OC (stereo not drawn),EC50,[1],17.2 µM (active)
same,EC50,[2],20.7 µM (active)
CC(OC(=O)c1oc2ccccc2c1COc1ccccc1)C(N)=O (stereo not drawn),EC50,[8],19.8 µM (inconclusive)
same,EC50,[15],26.7 µM (active)
same,EC50,[16],> 120 µM (not active)
same,EC50,[17],26.1 µM (active)
same,EC50,[9],> 38 µM (not active)
O=C(/C=C/c1ccncc1)c1ccc(NC(=O)c2ccccc2F)cc1,EC50,[1],1.12 µM (active)
same,EC50,[2],0.813 µM (active)
same,AC50,[3],5.5 µM (active)
OCCN1CCN(CC(O)COC(c2ccc(F)cc2)c2ccc(F)cc2)CC1 (stereo not drawn),IC50,[10],121 µM (active)
Cc1ccc(-n2nc(-c3ccco3)cc2C(=O)NCc2cccnc2)cc1,EC50,[15],> 120 µM (not active)
same,EC50,[16],38.1 µM (active)
same,EC50,[17],> 120 µM (not active)
CCn1c(C(=O)O)c(CC(=O)Nc2cccc(C(F)(F)F)c2)c2ccccc21,AC50,[3],15.3 µM (active)
O=C(Nc1cccc(Cl)c1)c1cccc(Oc2ccc([N+](=O)[O-])cc2Cl)c1,EC50,[1],16.1 µM (active)
same,EC50,[2],17.1 µM (active)
